Literature values, collected in PubChem BioAssay AID1259409 (Chemical Carcinogenesis Research Information System (CCRIS), 2018).

System: rodent chemically induced tumor inhibition, incidence and multiplicity
Assay: CCRIS tumor inhibitor studies
Details: Route [Inhibitor]: ORAL, Species: RAT, Promoter: NONE USED
[1] = Carcinogen: N-BUTYL-N-(4-HYDROXYBUTYL)NITROSAMINE, 3817-11-6, Dose [Inhibitor]: 5% DIET DAILY FOR 34 WK STARTING AT COMPLETION OF CARCINOGEN TREATMENT (STUDY DURATION: 38 WK), Strain/Sex: F344/MALE, Target Tissue: Type of Lesion: URINARY BLADDER: PAPILLOMA, Dose [Carcinogen]: 0.01% IN DRINKING WATER FOR 4 WK

O
tumour outcome (control, treated, inhibition, significance) (Carcinogen: 1,2-DIMETHYLHYDRAZINE, 540-73-8, Dose [Inhibitor]: 0, 250 PPM IN DIET BEGINNING POST CARCINOGEN TREATMENT AND CONTINUING FOR DURATION OF STUDY (STUDY DURATION: 365 D), Strain/Sex: F344/MALE, Target Tissue: Type of Lesion: LARGE INTESTINE: ADENOMA OR ADENOCARCINOMA, Dose [Carcinogen]: 20 MG/KG BW 10 TIMES): 14/30 (47%), 11/32 (34%), 28%, not significant | tumour outcome (control, treated, inhibition, significance) (Carcinogen: 1,2-DIMETHYLHYDRAZINE, 540-73-8, Dose [Inhibitor]: 0, 250 PPM IN DIET BEGINNING POST CARCINOGEN TREATMENT AND CONTINUING FOR DURATION OF STUDY (STUDY DURATION: 365 D), Strain/Sex: F344/MALE, Target Tissue: Type of Lesion: SMALL INTESTINE: ADENOCARCINOMA, Dose [Carcinogen]: 20 MG/KG BW 10 TIMES): 6/30 (20%), 5/32 (16%), 20%, not significant | tumour outcome (control, treated, inhibition, significance) (Carcinogen: 1,2-DIMETHYLHYDRAZINE, 540-73-8, Dose [Inhibitor]: 0, 500 PPM IN DIET BEGINNING POST CARCINOGEN TREATMENT AND CONTINUING FOR DURATION OF STUDY (STUDY DURATION: 365 D), Strain/Sex: F344/MALE, Target Tissue: Type of Lesion: LARGE INTESTINE: ADENOMA OR ADENOCARCINOMA, Dose [Carcinogen]: 20 MG/KG BW 10 TIMES): 14/30 (47%), 16/32 (50%), -6%, not significant | tumour outcome (control, treated, inhibition, significance) (Carcinogen: 1,2-DIMETHYLHYDRAZINE, 540-73-8, Dose [Inhibitor]: 0, 500 PPM IN DIET BEGINNING POST CARCINOGEN TREATMENT AND CONTINUING FOR DURATION OF STUDY (STUDY DURATION: 365 D), Strain/Sex: F344/MALE, Target Tissue: Type of Lesion: SMALL INTESTINE: ADENOMA, Dose [Carcinogen]: 20 MG/KG BW 10 TIMES): 6/30 (20%), 3/32 (9%), 55%, not significant | tumour outcome (control, treated, inhibition, significance) (Carcinogen: 1,2-DIMETHYLHYDRAZINE, 540-73-8, Dose [Inhibitor]: 0, 1000 PPM IN DIET BEGINNING POST CARCINOGEN TREATMENT AND CONTINUING FOR DURATION OF STUDY (STUDY DURATION: 365 D), Strain/Sex: F344/MALE, Target Tissue: Type of Lesion: LARGE INTESTINE: ADENOMA OR ADENOCARCINOMA, Dose [Carcinogen]: 20 MG/KG BW 10 TIMES): 14/30 (47%), 11/32 (34%), 28%, not significant | tumour outcome (control, treated, inhibition, significance) (Carcinogen: 1,2-DIMETHYLHYDRAZINE, 540-73-8, Dose [Inhibitor]: 0, 1000 PPM IN DIET BEGINNING POST CARCINOGEN TREATMENT AND CONTINUING FOR DURATION OF STUDY (STUDY DURATION: 365 D), Strain/Sex: F344/MALE, Target Tissue: Type of Lesion: SMALL INTESTINE: ADENOCARCINOMA, Dose [Carcinogen]: 20 MG/KG BW 10 TIMES): 6/30 (20%), 6/32 (19%), 5%, not significant | tumour outcome (control, treated, inhibition, significance) (Carcinogen: 1,2-DIMETHYLHYDRAZINE, 540-73-8, Dose [Inhibitor]: 0, 2000 PPM IN DIET BEGINNING POST CARCINOGEN TREATMENT AND CONTINUING FOR DURATION OF STUDY (STUDY DURATION: 365 D), Strain/Sex: F344/MALE, Target Tissue: Type of Lesion: LARGE INTESTINE: ADENOCARCINOMA, Dose [Carcinogen]: 20 MG/KG BW 10 TIMES): 11/30 (37%), 11/31 (35%), 5%, not significant | tumour outcome (control, treated, inhibition, significance) (Carcinogen: 1,2-DIMETHYLHYDRAZINE, 540-73-8, Dose [Inhibitor]: 0, 2000 PPM IN DIET BEGINNING POST CARCINOGEN TREATMENT AND CONTINUING FOR DURATION OF STUDY (STUDY DURATION: 365 D), Strain/Sex: F344/MALE, Target Tissue: Type of Lesion: SMALL INTESTINE: ADENOCARCINOMA, Dose [Carcinogen]: 20 MG/KG BW 10 TIMES): 6/30 (20%), 10/31 (32%), -60%, not significant | tumour outcome (control, treated, inhibition, significance) (Carcinogen: METHYLAZOXYMETHANOL ACETATE, 592-62-1, Dose [Inhibitor]: 0, 500 PPM IN DIET BEGINNING 2 WK POST CARCINOGEN TREATMENT AND CONTINUING FOR DURATION OF STUDY (STUDY DURATION: 255 D), Strain/Sex: F344/MALE, Target Tissue: Type of Lesion: LARGE INTESTINE: ADENOMA OR ADENOCARCINOMA, Dose [Carcinogen]: 25 MG/KG BW 1/WK FOR 3 WK): 17/32 (53%), 3/30 (10%), 81%, p<0.0002 | tumour outcome (control, treated, inhibition, significance) (Carcinogen: METHYLAZOXYMETHANOL ACETATE, 592-62-1, Dose [Inhibitor]: 0, 500 PPM IN DIET BEGINNING 2 WK POST CARCINOGEN TREATMENT AND CONTINUING FOR DURATION OF STUDY (STUDY DURATION: 255 D), Strain/Sex: F344/MALE, Target Tissue: Type of Lesion: SMALL INTESTINE: ADENOCARCINOMA, Dose [Carcinogen]: 25 MG/KG BW 1/WK FOR 3 WK): 2/32 (6%), 2/30 (7%), -17%, not significant | tumour outcome (control, treated, inhibition, significance) (Carcinogen: METHYLAZOXYMETHANOL ACETATE, 592-62-1, Dose [Inhibitor]: 0, 1000 PPM IN DIET BEGINNING 2 WK POST CARCINOGEN TREATMENT AND CONTINUING FOR DURATION OF STUDY (STUDY DURATION: 255 D, Strain/Sex: F344/MALE, Target Tissue: Type of Lesion: LARGE INTESTINE: ADENOMA OR ADENOCARCINOMA, Dose [Carcinogen]: 25 MG/KG BW 1/WK FOR 3 WK): 17/32 (53%), 9/30 (30%), 43%, not significant | tumour outcome (control, treated, inhibition, significance) (Carcinogen: METHYLAZOXYMETHANOL ACETATE, 592-62-1, Dose [Inhibitor]: 0, 1000 PPM IN DIET BEGINNING 2 WK POST CARCINOGEN TREATMENT AND CONTINUING FOR DURATION OF STUDY (STUDY DURATION: 255 D, Strain/Sex: F344/MALE, Target Tissue: Type of Lesion: SMALL INTESTINE: ADENOCARCINOMA, Dose [Carcinogen]: 25 MG/KG BW 1/WK FOR 3 WK): 2/32 (6%), 2/30 (7%), -17%, not significant | tumour outcome (control, treated, inhibition, significance) (Carcinogen: METHYLAZOXYMETHANOL ACETATE, 592-62-1, Dose [Inhibitor]: 500 PPM IN DIET BEGINNING 2 WK POST LAST CARCINOGEN DOSE AND CONTINUING FOR 227 D (STUDY DURATION: 255 D), Strain/Sex: F344/MALE, Target Tissue: Type of Lesion: LARGE INTESTINE: ADENOMA OR ADENOCARCINOMA, Dose [Carcinogen]: 25 MG/KG 1/WK FOR 3 WK): 17/32 (53%), 3/30 (10%), 81%, p<0.0002 | tumour outcome (control, treated, inhibition, significance) (Carcinogen: METHYLAZOXYMETHANOL ACETATE, 592-62-1, Dose [Inhibitor]: 1000 PPM IN DIET BEGINNING 2 WK POST LAST CARCINOGEN DOSE AND CONTINUING FOR 227 D (STUDY DURATION: 255 D), Strain/Sex: F344/MALE, Target Tissue: Type of Lesion: LARGE INTESTINE: ADENOMA OR ADENOCARCINOMA, Dose [Carcinogen]: 25 MG/KG 1/WK FOR 3 WK): 17/32 (53%), 9/30 (30%), 43%, not calculated

O=C1NS(=O)(=O)c2ccccc21
tumour outcome (control, treated, inhibition, significance) (Carcinogen: N-BUTYL-N-(4-HYDROXYBUTYL)NITROSAMINE, 3817-11-6, Dose [Inhibitor]: 0.5% DIET DAILY FOR 34 WK STARTING AT COMPLETION OF CARCINOGEN TREATMENT (STUDY DURATION: 38 WK), Strain/Sex: F344/MALE, Target Tissue: Type of Lesion: URINARY BLADDER: PAPILLOMA, Dose [Carcinogen]: 0.01% IN DRINKING WATER FOR 4 WK): 33%, 33%, 0%, not significant | tumour outcome (control, treated, inhibition, significance) [1]: 33%, 20%, 39%, not significant

CC1=C(/C=C/C(C)=C/C=C/C(C)=C/C(=O)Nc2ccc(O[C@@H]3O[C@H](C(=O)O)[C@@H](O)C(O)C3O)cc2)C(C)(C)CCC1 (stereo partly drawn)
tumour outcome (control, treated, inhibition, significance) (Carcinogen: 7,12-DIMETHYLBENZ[A]ANTHRACENE, 57-97-6, Dose [Inhibitor]: 0, 1 MMOL/KG IN DIET FOR THE DURATION OF STUDY BEGINNING 1 WK PRIOR TO CARCINOGEN DOSE (STUDY DURATION: 105 WK), Strain/Sex: SPRAGUE-DAWLEY/FEMALE, Target Tissue: Type of Lesion: MAMMARY GLAND: TUMOR, Dose [Carcinogen]: 15 MG IN 1 ML SESAME OIL ONCE): 88%, 36%, 59%, not significant

O=C(O)CNC(=O)c1ccccc1
tumour outcome (control, treated, inhibition, significance) [1]: 33%, 23%, 30%, not significant
